Results: patent US20060234980A1, “Antiinflammatory agent, agent for preventing/ameliorating allergic diseases and functional food” (priority 2002, published 2006)

Tested on: oral sensitization model of BALB/c mouse
Assay: Oral sensitization model with OVA, oligosaccharide-added feeds, serum antigen-specific antibody titer (ELISA)
Format: in vivo
Details: 5% (w/w) in feed
Description: An oral sensitization model of BALB/c mouse using ovalbumin (OVA) as a model antigen was produced, and influences exerted by various oligosaccharides added to feed on serum antibody titer were compared. Until initiation of the experiment, 12-week old male BALM/c mice were allowed to freely take AIN-93G as a base feed (α-corn starch, 529.5 g/kg; casein, 200 g/kg; sucrose, 100 g/kg; soy bean oil, 70 g/kg; cellulose, 50 g/kg; mineral mixing, 35 g/kg; vitamin mixing, 10 g/kg; L-cystine, 3 g/kg; choline bitartarate, 2.5 g/kg) . After pre-breeding for 1 week, an oligosaccahide no-[…] (base seed) group, and feeds obtained by substituting 5% (w/w) of the base feed with raffinose (RAF), α-GOS (hereinafter, referred to simply as GOS), fructooligosaccharide (FOS), xylooligosaccharide (XOS), that is, five groups were prepared, and mice were allowed to freely take these feeds for 8weeks. During this, an aqueous OVA solution (1 mg/0.2 mL) was orally administered forcibly everyday. After initiation of aministration of OVA, blood was collected from orbital venous plexus every one week, and centrifugally separated to obtain sera. Sear of one group (9/group) were pooled, and subjected to quantification of antigen-specific antibody titer by ELISA.

OC[C@H]1O[C@H](OC[C@H]2O[C@H](O[C@]3(CO)O[C@H](CO)[C@@H](O)[C@@H]3O)[C@H](O)[C@@H](O)[C@@H]2O)[C@H](O)[C@@H](O)[C@H]1O [RAF, raffinose] was tested. Which “effect on increase of IgE (overall conclusion)” value (8 weeks daily oral OVA) did it give?
Its value is “effect of delaying increase”.

What about the “effect on increase of IgG (overall conclusion)” value (8 weeks daily oral OVA) of the same molecule?
The value was “effect of delaying increase”.

What about the “antigen-specific IgG in blood” value (at 2 to 5 weeks) of the same molecule?
The value was “changed lower than the oligosaccharide no-addition feed group”.

And the “antigen-specific IgE in blood” value (at 8 weeks)?
Its value is “showed the same high value as that of the FOS group”.

And the “antigen-specific IgE in blood” value (until 7 weeks)?
Its value is “changed lower than the oligosaccharide no-addition feed group and the FOS feed group”.
